In patent US12139481B2, “Compositions comprising macrocycle derivatives incorporating bridged macrocycles and methods of producing and using same” (Southwestern Oklahoma State University, priority 2015, dated 2024):

Experiments:
[1] = tested on: S. mansoni newly transformed schistosomula (NTS); assay: In vitro testing on Schistosoma mansoni newly transformed schistosomula (NTS), viability score; assay type: cell-based; conditions: NTS S. mansoni, 33 μM, 72 h
Experimental: Assays were prepared according to the laboratory SOP for the lab of Dr. Jennifer Keiser (Swiss Tropical and Public Health Institute, Basel). Harvested S. mansoni cercariae (Liberian strain) obtained from infected Biomphalaria glabrata snails were mechanically transformed into newly transformed schistosomula (NTS) following standard procedures. Briefly, snails were placed under light in the morning to stimulate cercarial shedding. The cercarial suspension was collected, cooled for 30 minutes, and then vigorously pipetted (30×) and vortexed (3 minutes). The suspension was then placed in the incubator (37° C. and 5% CO2) for 30 minutes, and the vortexing and pipetting steps were repeated. The transformation was complete at this point, and the tails were separated from the heads by rinsing three times with cold HBSS. NTS were then incubated overnight in culture medium overnight and used the next day.
The original stock compounds (which were not already dissolved) were dissolved in dimethyl sulfoxide (DMSO) to a concentration of 10 mM. 100 NTS were placed in each well of a 96-well plate with culture medium, and the test compound for a final well volume of 250 μl. […] NTS incubated with no more than 1% DMSO served as control. NTS were kept in an incubator at 37° C. and 5% CO2 for up to 72 hours. After 72 hours, the condition of the NTS was microscopically evaluated using a scale from 3 (normal activity and no tegument alteration) to 0 (dead, completely granulated).

[2] = tested on: Cryptococcus neoformans ATCC 90113; assay: Antimicrobial microdilution assay against Cryptococcus neoformans (modified CLSI/NCCLS, optical density); assay type: cell-based; conditions: for X more potent than Amphotericin B: C. neoformans, ratio of molar IC50 to Amphotericin B; for C. neoformans IC50 / IC50: in vitro, C. neoformans ATCC 90113; for IC50: read-out: C. neoformans IC50 (mol/L)
Procedure, shortened: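 Broth microdilution (modified CLSI) in RPMI pH 6.0, samples serially diluted in 20% DMSO/saline and tested in duplicate, growth followed by OD630 before and after incubation. MFC is the lowest concentration giving no growth when 5 μL from clear wells is plated on agar.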

[3] = tested on: L. donovani promastigotes; assay: Antileishmanial Alamar Blue assay on promastigotes; assay type: cell-based, Leishmania donovani
Procedure, shortened: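 L. donovani promastigotes in RPMI 1640 with 10% FCS, from 3-day culture, were set at 5×10^5/mL and exposed to compound (50-3.1 μg/mL) for 48 hours at 26° C. Growth read by Alamar Blue fluorescence (ex 544/em 590 nm); IC50 from percent growth versus concentration.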

[4] = tested on: C. krusei ATCC 6258; assay: Antifungal broth dilution assay against C. krusei (modified CLSI); assay type: cell-based, Candida krusei
Procedure, shortened: (§1)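 Modified CLSI broth microdilution with OD monitoring before and after incubation at 35 °C: Candida in RPMI 1640/MOPS pH 6.0, 1.5×10^3 CFU/ml, 46-50 h; Staphylococcus in cation-adjusted Mueller-Hinton pH 7.3, 5.0×10^5 CFU/ml, 16-20 h. IC50 from curve fit; MIC is the lowest concentration with no growth; MFC/MBC from subculture.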

[5] = tested on: Staphylococcus aureus ATCC 29213; assay: Antibacterial broth dilution assay against S. aureus (modified CLSI); assay type: cell-based
Procedure, shortened: as §1

[6] = tested on: methicillin-resistant S. aureus ATCC 33591 (MRS); assay: Antibacterial broth dilution assay against MRSA (modified CLSI); assay type: cell-based, Staphylococcus aureus
Experimental: General Experimental Procedures. All organisms were obtained from the American Type Culture Collection (Manassas, VA) and include the fungi Candida albicans ATCC 90028, C. glabrata ATCC 90030, C. krusei ATCC 6258, and Cryptococcus neoformans ATCC 90113, and the bacteria Staphylococcus aureus ATCC 29213 and methicillin-resistant S. aureus ATCC 33591 (MRS). All organisms were tested using modified versions of the CLSI (formerly NCCLS) methods. For all organisms, optical density was used to monitor growth (NCCLS, Reference Method for Broth Dilution Antifungal Susceptibility Testing of Yeasts; Approved Standard M27-A2. National Committee on Clinical Laboratory Standards, 2002 22 (15); and NCCLS, Methods for Dilution Antimicrobial Susceptibility Tests for Bacteria that Grow Aerobically; Approved Standard, Seventh Edition M7-A7. National Committee on Clinical Laboratory Standards, 2006. 26(2)).
Samples (dissolved in DMSO) were serially-diluted in 20% DMSO/saline and transferred (10 μL) in duplicate to 96 well flat bottom microplates. Inocula were prepared by correcting the OD630 of microbe suspensions in incubation broth [RPMI 1640/0.2% dextrose/0.03% glutamine/MOPS @ pH 6.0 (Cellgro) for Candida spp., Sabouraud Dextrose for C. neoformans, and cation-adjusted Mueller-Hinton (Difco) @ pH 7.3 for Staphylococcus spp. to afford an assay volume of […] and final target inocula of: Candida spp. and C. neoformans: 1.5×10^3, and Staphylococcus spp.: 5.0×10^5 CFU/ml. Final sample test concentrations were 1/100th the DMSO stock concentration. […] All organisms were read at either 530 nm using the Biotek Powerwave XS plate reader (Bio-Tek Instruments, Vermont) prior to and after incubation: Candida spp. at 35° C. for 46-50 h, Staphylococcus spp. at 35° C. for 16-20 h, and C. neoformans at 35° C. for 70-74 h. IC50s (concentrations that afford 50% inhibition relative to controls) were calculated using XLfit 4.2 software (IDBS, Alameda, CA) using fit model 201. The MIC is defined as the lowest test concentration that allows no detectable growth. Minimum fungicidal or bactericidal concentrations were determined by removing 5 μl from each clear (or blue) well, transferring to fresh media, and incubating as previously mentioned. The MFC/MBC is defined as the lowest test concentration that kills the organism (allows no growth).
Primary Analysis. Samples were tested in duplicate at one test concentration (50 μg/mL), and percent inhibitions were calculated relative to blank and growth controls. Samples showing 50% inhibition in at least one test organism were selected for dose response (Secondary) studies.
Secondary Analysis. Extracts from the Primary Assay, and first-run pure compounds and column fractions were tested in duplicate at 3 test concentrations (5-fold dilutions). Samples dissolved to 20 mg/mL in DMSO were tested at 200, 40, and 8 μg/mL. Samples dissolved to 2 mg/mL in DMSO were tested at 20, 4, and 0.8 μg/mL.

[7] = in vitro, converted with molecular weight
[8] = molar IC50 ratio versus ciprofloxacen

Compound | Effect at 72 h (%) [1] | X more potent than Amphotericin B [2] | C. neoformans IC50 [2] | IC50 [2] | further results
[Ni2(m-SB-Cyclams)(OAc)2][PF6]2 [KS25] | 18.02% | 0.02 | 16.030 µg/mL | 15.7 µM | 
m-SB-cyclens HCl salt [OB25B] |  | 0.74 | 0.300 µg/mL | 0.324 µM | X more potent than Pentamidine ([3]; L. donovani, ratio of molar IC50 to Pentamidine): 0.43; L. donovani IC50 ([3]; promastigotes, 48 hours, Alamar Blue): 11.45 µg/mL; IC50 ([3]; promastigotes, 48 hours, Alamar Blue, read-out: L. donavani IC50): 12.4 µM; X more potent than Amphotericin B ([4]; C. krusei, ratio of molar IC50 to amphotericin B): 0.21; C. krusei IC50 ([4]; in vitro): 6.530 µg/mL; IC50 ([4]; in vitro, read-out: C. krusei IC50 (mol/L)): 7.05 µM; S. aureus IC50 ([5]; in vitro): 5.940 µg/mL; IC50 [5, 7]: 6.41 µM; X more potent than ciprofloxacen [5, 8]: 0.04; MRSa IC50 ([6]; in vitro): 5.450 µg/mL; IC50 [6, 7]: 5.88 µM; X more potent than ciprofloxacen [6, 8]: 0.04
CC(=O)[O-].CC(=O)[O-].CC(=O)[O-].CN1CCN2CCN(CC1)CCN(Cc1cc(CN3CCN4CCN(C)CCN(CC4)CC3)cc(CN3CCN4CCN(C)CCN(CC4)CC3)c1)CC2.F[P-](F)(F)(F)(F)F.F[P-](F)(F)(F)(F)F.F[P-](F)(F)(F)(F)F.O.O.O.O.O.O.[Zn+2].[Zn+2].[Zn+2] [BNS22, [Zn3(tris-CB-Cyclens)(OAc)3][PF6]3•6H2O] | 11.71% | 0.12 | 3.410 µg/mL |  | 
F[P-](F)(F)(F)(F)F.F[P-](F)(F)(F)(F)F.F[P-](F)(F)(F)(F)F.F[P-](F)(F)(F)(F)F.F[P-](F)(F)(F)(F)F.F[P-](F)(F)(F)(F)F.[Ni+2].[Ni+2].[Ni+2].c1c(CN2CCCN3CCN(CCCNCC2)CC3)cc(CN2CCCN3CCN(CCCNCC2)CC3)cc1CN1CCCN2CCN(CCCNCC1)CC2 [CDG024, [Ni3(tris-SB-Cyclams)][PF6]6] | 5.41% | 0.18 | 2.440 µg/mL | 1.33 µM | 
[Cu3(tris-SB-Cyclens)(OAc)3][PF6]3•0.5NH4PF6 [CDG022] | 11.71% | 0.07 | 5.480 µg/mL | 3.44 µM | 
CC(=O)[O-].CC(=O)[O-].F[P-](F)(F)(F)(F)F.F[P-](F)(F)(F)(F)F.O.[Ni+2].[Ni+2].c1cc(CN2CCNCCN3CCN(CC3)CC2)ccc1CN1CCNCCN2CCN(CC2)CC1 [OB29, [Ni2(p-SB-Cyclens)(OAc)2][PF6]2•H2O] | 5.41% | 0.31 | ≤ 0.800 µg/mL | 0.768 µM | 
CC(=O)[O-].CC(=O)[O-].CC(=O)[O-].CN1CCN2CCN(CC1)CCN(Cc1cc(CN3CCN4CCN(C)CCN(CC4)CC3)cc(CN3CCN4CCN(C)CCN(CC4)CC3)c1)CC2.F[P-](F)(F)(F)(F)F.F[P-](F)(F)(F)(F)F.F[P-](F)(F)(F)(F)F.[Cu+2].[Cu+2].[Cu+2] [BNS21, [Cu3(tris-CB-Cyclens)(OAc)3][PF6]3] | 5.41% | 0.28 | 1.320 µg/mL | 0.85 µM | 
[Zn2(m-SB-Cyclams)(OAc)2][PF6]2 [KS26] | 11.71% | 0.02 | 12.510 µg/mL | 12.1 µM | 
